Measured values taken from patent publication US5750754A, “Heterocyclic compounds” (Zeneca Limited, priority 1993, dated 1998).
Counter-ions that a name gives are not always drawn.

What was measured:
[1] = molecular target: T1, purified human platelet fibrinogen receptor (GPIIb/IIIa) (Homo sapiens, UniProt P05106+P08514); test: Test (b): GPIIb/IIIa ELISA, inhibition of biotinylated fibrinogen binding; details: purified human platelet GPIIb/IIIa, ELISA; for IC50: read-out: Test (b): pIC50 (-log(IC50)), 50% inhibition of biotinylated fibrinogen binding to GPIIb/IIIa (converted)
T1 construct: is isolated from human platelet lysates; from tissue
In short: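 GPIIb/IIIa affinity-purified from human platelet lysates was coated on plates, blocked, then incubated 2 h at 30 °C with biotinylated fibrinogen ([…]) plus compound. Bound fibrinogen detected via streptavidin/biotinylated HRP and TMB, OD at 650 nm; pIC50 for 50% binding inhibition.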

[2] = molecular target: T2, human, citrated, platelet-rich plasma (Homo sapiens, UniProt P05106+P08514); test: Test (a): inhibition of ADP stimulated platelet aggregation (Born); format: cell-based; details: ADP induced aggregation of human platelet-rich plasma; for Kb: read-out: Test (a): pA2 value indicating potency of platelet aggregation inhibition (converted)
T2 construct: aggregating human, citrated, platelet-rich plasma; endogenous in cells; host or cells: human platelets in citrated platelet-rich plasma
In short: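 ADP added to human citrated platelet-rich plasma to build aggregation dose-response curves, repeated with increasing test compound (generally 10-^5 M to 10-^10 M). pA2 derived from the 50% response value for ADP with vs. without compound, averaged over several concentrations.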

T1 sequence (P08514 32-887 limits assumed): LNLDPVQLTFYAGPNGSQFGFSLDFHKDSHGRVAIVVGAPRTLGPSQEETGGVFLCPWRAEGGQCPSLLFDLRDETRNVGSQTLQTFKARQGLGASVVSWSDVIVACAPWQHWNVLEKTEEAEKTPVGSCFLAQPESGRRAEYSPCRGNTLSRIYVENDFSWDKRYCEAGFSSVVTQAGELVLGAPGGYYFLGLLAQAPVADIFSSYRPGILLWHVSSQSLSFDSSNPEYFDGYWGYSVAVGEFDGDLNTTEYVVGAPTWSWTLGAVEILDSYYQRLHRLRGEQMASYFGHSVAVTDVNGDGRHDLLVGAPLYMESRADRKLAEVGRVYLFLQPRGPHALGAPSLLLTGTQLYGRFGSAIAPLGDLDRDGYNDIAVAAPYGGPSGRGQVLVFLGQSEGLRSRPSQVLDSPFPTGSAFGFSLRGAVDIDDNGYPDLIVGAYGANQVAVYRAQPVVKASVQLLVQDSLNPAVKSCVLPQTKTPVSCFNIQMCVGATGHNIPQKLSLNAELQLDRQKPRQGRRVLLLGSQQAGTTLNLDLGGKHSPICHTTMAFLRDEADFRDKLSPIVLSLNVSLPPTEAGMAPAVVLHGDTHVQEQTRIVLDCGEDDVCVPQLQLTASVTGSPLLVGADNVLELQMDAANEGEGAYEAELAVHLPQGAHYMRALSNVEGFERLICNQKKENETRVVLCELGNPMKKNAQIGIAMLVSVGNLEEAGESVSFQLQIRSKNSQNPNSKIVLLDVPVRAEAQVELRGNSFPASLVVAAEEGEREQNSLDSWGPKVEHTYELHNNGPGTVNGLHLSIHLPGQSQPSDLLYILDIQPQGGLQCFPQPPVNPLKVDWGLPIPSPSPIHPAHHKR
T1 sequence (P08514 891-1039 limits assumed): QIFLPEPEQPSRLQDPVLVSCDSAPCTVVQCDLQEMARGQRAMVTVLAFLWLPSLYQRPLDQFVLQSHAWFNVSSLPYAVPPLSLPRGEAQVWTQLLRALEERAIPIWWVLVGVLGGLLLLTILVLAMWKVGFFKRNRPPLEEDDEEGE
T1 sequence (P05106 27-788): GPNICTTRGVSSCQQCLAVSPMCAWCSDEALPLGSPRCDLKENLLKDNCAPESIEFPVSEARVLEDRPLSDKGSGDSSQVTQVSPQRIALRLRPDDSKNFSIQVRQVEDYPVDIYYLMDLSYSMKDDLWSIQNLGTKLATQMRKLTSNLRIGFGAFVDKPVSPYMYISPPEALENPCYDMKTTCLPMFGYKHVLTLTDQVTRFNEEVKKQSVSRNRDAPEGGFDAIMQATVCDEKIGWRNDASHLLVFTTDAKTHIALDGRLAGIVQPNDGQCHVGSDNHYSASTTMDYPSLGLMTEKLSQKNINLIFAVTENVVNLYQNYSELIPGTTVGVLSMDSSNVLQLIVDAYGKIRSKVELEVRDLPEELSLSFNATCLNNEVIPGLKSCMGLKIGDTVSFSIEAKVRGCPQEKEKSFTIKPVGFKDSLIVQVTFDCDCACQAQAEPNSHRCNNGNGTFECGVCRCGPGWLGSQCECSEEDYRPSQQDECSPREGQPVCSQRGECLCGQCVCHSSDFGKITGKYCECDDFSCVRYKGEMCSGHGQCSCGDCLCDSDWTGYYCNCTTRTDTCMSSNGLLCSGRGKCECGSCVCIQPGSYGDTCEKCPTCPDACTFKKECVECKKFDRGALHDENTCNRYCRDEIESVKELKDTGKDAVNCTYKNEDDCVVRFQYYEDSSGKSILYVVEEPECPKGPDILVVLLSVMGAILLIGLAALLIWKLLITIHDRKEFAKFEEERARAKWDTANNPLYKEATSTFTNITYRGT
T2 sequence (P08514 32-887 limits assumed): as the sequence (P08514 32-887 limits assumed) above
T2 sequence (P08514 891-1039 limits assumed): as the sequence (P08514 891-1039 limits assumed) above
T2 sequence (P05106 27-788): as the sequence (P05106 27-788) above

SMILES | IC50 [1] | Kb [2] | Test (b): pIC50 (-log(IC50)), 50% inhibition of biotinylated fibrinogen binding to GPIIb/IIIa [1] | Test (a): pA2 value indicating potency of platelet aggregation inhibition [2]
CCCCS(=O)(=O)N[C@@H](Cc1ccc(OCCCCC2CCN(c3ccncc3)CC2)cc1)C(=O)O [Example 84, 2-S-(n-Butylsulphonylamino)-3-[4-[4-[1-(4-pyridyl)piperidin-4-yl]butoxy]phenyl]propionic acid] | 0.02 µM | 0.0631 µM | – | –
COC(=O)[C@H](Cc1ccc(OCCC2CCN(c3ccncc3)CC2)cc1)NS(C)(=O)=O [Example 85, Methyl 2-S-(methsulphonylamino)-3-[4-[2-[1-(4-pyridyl)piperidin-4-yl]ethoxy]phenyl]propionate] | 0.251 µM | 1.58 µM | – | –
COC(=O)[C@H](Cc1ccc(OCCC2CCN(c3ccncc3)CC2)cc1)NS(=O)(=O)Cc1ccccc1 [Example 86, Methyl 2-S-(benzylsulphonylamino)-3-[4-[2-[1-(4-pyridyl)piperidin-4-yl]ethoxy]phenyl]propionate] | 0.2 µM | 3.98 µM | – | –
COC(=O)[C@H](Cc1ccc(OCCC2CCN(c3ccncc3)CC2)cc1)NS(=O)(=O)c1ccc(C)cc1 [Example 87, Methyl 2-S-(4-methylphenylsulphonylamino)-3-[4-[2-[1-(4-pyridyl)piperidin-4-yl]ethoxy]phenyl]propionate] | 0.0631 µM | 2.51 µM | – | –
CS(=O)(=O)N[C@@H](Cc1ccc(OCCC2CCN(c3ccncc3)CC2)cc1)C(=O)O [Example 88, 2-S-(Methylsulphonylamino)-3-[4-[2-[1-(4-pyridyl)piperidin-4-yl]ethoxy]phenyl]propionic acid] | 0.00251 µM | 0.001 µM | – | –
O=C(O)[C@H](Cc1ccc(OCCC2CCN(c3ccncc3)CC2)cc1)NS(=O)(=O)Cc1ccccc1 [Example 89, 2-S-(Benzylsulphonylamino)-3-[4-[2-[1-(4-pyridyl)piperidin-4-yl]ethoxy]phenyl]propionic acid] | 0.002 µM | 0.0398 µM | – | –
Cc1ccc(S(=O)(=O)N[C@@H](Cc2ccc(OCCC3CCN(c4ccncc4)CC3)cc2)C(=O)O)cc1 [Example 90, Lithium 2-S-(4-methylphenylsulphonylamino)-3-[4-[2-[1-(4-pyridyl)piperidin-4-yl]ethoxy]phenyl]propionate] | 0.00316 µM | 0.01 µM | – | –
CCCCC(=O)N[C@@H](Cc1ccc(OCCC2CCN(c3ccncc3)CC2)cc1)C(=O)OC [Example 91, Methyl 2-S-(pentanoylamino)-3-[4-[2-[1-(4-pyridyl)piperidin-4-yl]ethoxy]phenyl]propionate] | 0.2 µM | 0.158 µM | – | –
CCCCC(=O)N[C@@H](Cc1ccc(OCC2CCN(c3ccncc3)CC2)cc1)C(=O)OC [Example 92, Methyl 2-S-(pentanoylamino)-3-[4-[1-(4-pyridyl)piperidin-4-yl]methoxyphenyl]propionate] | 0.0794 µM | 2 µM | – | –
CCCCC(=O)N[C@@H](Cc1ccc(OCCC2CCN(c3ccncc3)CC2)cc1)C(=O)O [Example 93, 2-S-(Pentanoylamino)-3-[4-[2-[1-(4-pyridyl)piperidin-4-yl]ethoxy]phenyl]propionic acid] | 0.00316 µM | 0.0126 µM | – | –
O=C(N[C@@H](Cc1ccc(OCCC2CCN(c3ccncc3)CC2)cc1)C(=O)O)OCc1ccccc1 [Example 94, 2-S-(Benzyloxycarbonylamino)-3-[4-[2-[1-(4-pyridyl)piperidin-4-yl]ethoxy]phenyl]propionic acid] | 0.00251 µM | 0.316 µM | – | –
CCCCS(=O)(=O)N[C@@H](Cc1ccc(OCCCN(C)c2ccncc2)cc1)C(=O)OC [Example 95, Methyl-2-S-(n-butylsulphonylamino)-3-[3-(N-methyl-N-4-pyridyl)aminopropoxy]phenylpropionate] | 7.94 µM | 10 µM | – | –
CCCCS(=O)(=O)N[C@@H](Cc1ccc(OCCCN(C)c2ccncc2)cc1)C(=O)O [Example 96] | 0.00398 µM | 0.0794 µM | – | –
CCCCS(=O)(=O)NC(CC(=O)OC)c1ccc(OCC2CCN(c3ccncc3)CC2)cc1 (stereo not drawn) [Example 97, Methyl 3-(n-butylsulphonylamino)-3-[4-[1-(4-pyridyl)piperidin-4-yl]-methoxyphenyl]propionate] | 3.16 µM | 3.98 µM | – | –
CCCCS(=O)(=O)NC(CC(=O)O)c1ccc(OCC2CCN(c3ccncc3)CC2)cc1 (stereo not drawn) [Example 98, 3-(n-Butylsulphonylamino)-3-[4-[1-(4-pyridyl)piperidin-4-yl]methoxyphenyl]propionic acid] | – | – | 8.5 | 7.6
COC(=O)CC(NS(=O)(=O)c1ccc(C)cc1)c1ccc(OCC2CCN(c3ccncc3)CC2)cc1 (stereo not drawn) [Example 99, Methyl 3-(4-methylphenylsulphonylamino)-3-[4-[1-(4-pyridyl)piperidin-4-yl]methoxyphenyl]propionate] | 0.251 µM | 3.98 µM | – | –
CCCCS(=O)(=O)N[C@H](Cc1ccc(OCC2CCN(c3ccncc3)CC2)cc1)C(=O)OC [Example 100, Methyl 2-R-(n-butylsulphonylamino)-3-[4-[1-(4-pyridyl)piperidin-4-yl]methoxyphenyl]propionate] | 3.98 µM | 39.8 µM | – | –
CCCCS(=O)(=O)N[C@H](Cc1ccc(OCC2CCN(c3ccncc3)CC2)cc1)C(=O)O [Example 101] | 0.0316 µM | 0.501 µM | – | –

SMILES | IC50 [1] | Kb [2] | Test (b): pIC50 (-log(IC50)), 50% inhibition of biotinylated fibrinogen binding to GPIIb/IIIa [1] | Test (a): pA2 value indicating potency of platelet aggregation inhibition [2]
O=C(O)CC1(O)CCC(N2CCN(c3ccncc3)CC2)CC1 (stereo not drawn) [Example 102, cis-1-Hydroxy-4[4-(4-pyridyl)piperazin-1-yl]cyclohexaneacetic acid] | 1.58 µM | 2 µM | – | –
CC(C)(C)OC(=O)COC1CCCN(C(=O)CN2CCN(c3ccncc3)CC2)C1 (stereo not drawn) [Example 103, Tert-butyl 1-[2-[4-(4-pyridyl)piperazin-1in-1-yl]acetyl]piperidin-3-yloxyacetate] | 7.94 µM | 31.6 µM | – | –
O=C(O)COC1CCCN(C(=O)CN2CCN(c3ccncc3)CC2)C1 (stereo not drawn) [Example 104, 1[2-[4-(4-Pyridyl)piperazin-1yl]acetyl]piperidin-3-yloxyacetic acid] | 20 µM | > 100 µM | – | –
CC(C)(C)OC(=O)COC1CCN(C(=O)CN2CCN(c3ccncc3)CC2)CC1 [Example 106] | 39.8 µM | 15.8 µM | – | –
COCCNC(=O)COC1CCN(C(=O)CN2CCN(c3ccncc3)CC2)CC1 [Example 107, N-2-Methoxyethyl 1-[2-[4-(4-pyridyl)piperazin-1-yl]acetyl]-piperidin-4-yloxyacetamide] | > 100 µM | 31.6 µM | – | –
O=C(O)COc1ccc(C(=O)CN2CCC(=Cc3cnccc3N3CCCC3)C2)cc1 [Example 108, 4-[2-[3-[4-(1-Pyrrolidinyl)pyridin-3yl]methylidene]pyrrolidin-1-yl]-acetylphenoxyacetic acid] | 1.26 µM | 0.501 µM | – | –
O=C(O)CCC1CCN(C(=O)CN2CCN(c3ccncc3)CC2)CC1 [Example 109, 3-[1-[2-[4-(4-Pyridyl)piperazin-1-yl]acetyl]piperidin-4-yl]propanoic acid] | 0.631 µM | 0.316 µM | – | –
O=C(O)CCC(CC1CCN(C(=O)CN2CCN(c3ccncc3)CC2)CC1)C(=O)O (stereo not drawn) [Example 112] | – | – | 5.5 | 5.2
CN(C)c1ccncc1COc1ccc(OCCCC(=O)O)cc1 [Example 113, 4-[4-[(4-Dimethylaminopyrid-3-yl)methoxy]phenoxy]butanoic acid] | 25.1 µM | > 100 µM | – | –
COC(=O)C(Cc1ccc(OCc2cnccc2N(C)C)cc1)NC(=O)OCc1ccccc1 (stereo not drawn) [Example 114, Methyl3-(4-dimethylamninopyrid-3-yl)methoxyphenoxyl-2-benzyloxycarbonylaminopropanoate] | 2.51 µM | > 100 µM | – | –
CCCCS(=O)(=O)NCC1CCN(C(=O)CN2CCN(c3ccncc3)CC2)CC1 [Example 115, N-[1-[2-[4-(4-Pyridiyl)piperazin-1-yl]acetyl]piperidin-4-ylmethyl]-1-butanesulphonamide] | > 100 µM | 3.98 µM | – | –
COC(=O)COc1c(Cl)cc(C(=O)CN2CCN(c3ccncc3)CC2)cc1Cl [Example 116] | 2.51 µM | 2 µM | – | –
COC(=O)COc1ccc(C(=O)CN2CCN(c3ccncc3)CC2)c2ccccc12 [Example 117] | 3.98 µM | 12.6 µM | – | –
COC(=O)COc1ccc(C(=O)CN2CCN(c3ccncc3)CC2)c(C)c1 [Example 118, Methyl 4-[2-[4-(4-pyridyl)piperazin-1-yl]acetyl]-3-methylphenoxyacetate] | 0.398 µM | 0.2 µM | – | –
COC(=O)COc1cccc(C(=O)CN2CCN(c3ccncc3)CC2)c1 [Example 119] | > 100 µM | 31.6 µM | – | –
O=C(O)COc1c(Cl)cc(C(=O)CN2CCN(c3ccncc3)CC2)cc1Cl [Example 123, 4-[2-[4-(4-Pyridyl)piperazin-1-yl]acetyl]-2,6-dichlorophenoxyacetic acid, dihydrochloride] | 0.1 µM | 1 µM | – | –
O=C(O)COc1ccc(C(=O)CN2CCN(c3ccncc3)CC2)c2ccccc12 [Example 124, 4-[2-[4-(4-Pyridyl)piperazin-1-yl]acetyl]naphthoxyacetic acid, dihydrochloride] | 0.251 µM | 0.794 µM | – | –
Cc1cc(OCC(=O)O)ccc1C(=O)CN1CCN(c2ccncc2)CC1 [Example 125, 4-[2-[4-(4-Pyridyl)piperazin-1-yl]acetyl]-3-methylphenoxyacetic acid, dihydrochloride] | 0.0158 µM | 0.158 µM | – | –
